Drawing on patent US20160250354A1, “METHODS AND COMPOSITIONS FOR DELIVERY OF ACTIVE AGENTS” (TEKMIRA PHARMACEUTICALS CORPORATION, priority 2010, published 2016), this text covers ED50 for four compounds.

The test concerns Factor VII. The test can be described thus: in vivo rodent Factor VII silencing model (serum/plasma FVII after i.v. FVII siRNA lipid formulation). Also noted: species or system C57BL/6 mice. Here is the method:
C57BL/6 mice (Charles River Labs, MA) receive either saline or siRNA in desired formulations via tail vein injection at a volume of 0.01 mL/g. At various time points post-administration, animals are anesthetized by isofluorane inhalation and blood is collected into serum separator tubes by retro orbital bleed. Serum levels of Factor VII protein are determined in samples using a chromogenic assay (Coaset Factor VII, DiaPharma Group, OH or Biophen FVII, Aniara Corporation, OH) according to manufacturer protocols. A standard curve is generated using serum collected from saline treated animals. In experiments where liver mRNA levels were assessed, at various time points post-administration, animals are sacrificed and livers are harvested and snap frozen in liquid nitrogen. Frozen liver tissue is ground into powder. Tissue lysates were prepared and liver mRNA levels of Factor VII and apoB are determined using a branched DNA assay (QuantiGene Assay, Panomics, CA).
Factor VII (FVII), a prominent protein in the coagulation cascade, is synthesized in the liver (hepatocytes) and secreted into the plasma. FVII levels in plasma can be determined by a simple, plate-based colorimetric assay. As such, FVII represents a convenient model for determining sirna-mediated downregulation of hepatocyte-derived proteins, as well as monitoring plasma concentrations and tissue distribution of the nucleic acid lipid particles and siRNA.
The cationic lipids shown above are used to formulate liposomes containing the AD-1661duplex using an in-line mixing method, as described in U.S. provisional patent application 61/228,373, which is incorporated by reference in its entirety. Lipid particles are formulated using the following molar ratio: 50% Cationic lipid/10% distearoylphosphatidylcholine (DSPC)/38.5% Cholesterol/1.5% PEG-DMG (1-(monomethoxy-polyethyleneglycol)-2,3-dimyristoylglycerol, with an average PEG molecular weight of 2000).
C57BL/6 mice (Charles River Labs, MA) receive either saline or formulated siRNA via tail vein injection. At various time points after administration, serum samples are collected by retroorbital bleed. Serum levels of Factor VII protein are determined in samples using a chromogenic assay (Biophen FVII, Aniara Corporation, OH). To determine liver mRNA levels of Factor VII, animals are sacrificed and livers were harvested and snap frozen in liquid nitrogen. Tissue lysates are prepared from the frozen tissues and liver mRNA levels of Factor VII are quantified using a branched DNA assay (QuantiGene Assay, Panomics, CA).
FVII activity is evaluated in FVII siRNA-treated animals at 48 hours after intravenous (bolus) injection in C57BL/6 mice. FVII is measured using a commercially available kit for determining protein levels in serum or tissue, following the manufacturer's instructions at a microplate scale. FVII reduction is determined against untreated control mice, and the results are expressed as % Residual FVII. Two dose levels (0.05 and 0.005 mg/kg FVII siRNA) are used in the screen of each novel liposome composition.
Cationic lipid containing particles are made using the preformed vesicle method. Cationic lipid, DSPC, cholesterol and PEG-lipid were solubilized in ethanol at a molar ratio of 40/10/40/10, respectively. The lipid mixture is added to an aqueous buffer (50 mM citrate, pH 4) with mixing to a final ethanol and lipid concentration of 30% (vol/vol) and 6.1 mg/mL respectively and allowed to equilibrate at room temperature for 2 min before extrusion. The hydrated lipids are extruded through two stacked 80 nm pore-sized filters (Nuclepore) at 22° C. using a Lipex Extruder (Northern Lipids, Vancouver, BC) until a vesicle diameter of 70-90 nm, as determined by Nicomp analysis, is obtained. This generally required 1-3 passes.
The FVII siRNA (solubilised in a 50 mM citrate, pH 4 aqueous solution containing 30% ethanol) is added to the vesicles, pre-equilibrated to 35° C., at a rate of ˜5 mL/min with mixing. […]

Setting [1] is: Table 10, dose resulting in a 50% reduction in plasma FVII levels vs control animals, lipid formulation with FVII siRNA, i.v. tail vein, C57Bl/6 mice.

As usually defined, the ED50 is the midpoint of the dose-response relation. The low end stands for greater potency, the high end for weaker potency. On to `CCCCCC1CC1CC1CC1CCCCCCCCC(CCCCCCCCC1CC1CC1CC1CCCCC)OC(=O)CCCN(C)C` (stereo not drawn) [Compound 1, 1,17-bis(2-((2-pentylcyclopropyl)methyl)cyclopropyl)heptadecan-9-yl 4-(dimethylamino)butanoate], for which the ED50 reads like this: under setting [1], 0.12 mg/kg; (in-line mixing formulation compound 1/DSPC/Chol/(C14)PEG-DMG 50/10/38.5/1.5, FIG. 1) 0.01 mg/kg; (pre-formed vesicle (PFV) formulation compound 1/DSPC/Chol/(C14)PEG-DMG 40/10/40/10, FIG. 2) 0.12 mg/kg. With `CCCCC/C=C\C/C=C\CCCCCCCCC(CCCCCCCC/C=C\C/C=C\CCCCC)SSCCCCN(C)C` [Compound 2], the 50% effect level under setting [1] (ED50) was put at a dose of 0.11 mg/kg. The same measure, in the same setting: the same measure for `CCCCC/C=C\C/C=C\CCCCCCCCC(CCCCCCCC/C=C\C/C=C\CCCCC)ON=CCCCN(C)C` [Compound 3]: 0.06 mg/kg; for `CCCCC/C=C\C/C=C\CCCCCCC[C@H]1OC2(CCN(C)CC2)O[C@@H]1CCCCCCC/C=C\C/C=C\CCCCC` [Compound 4]: 0.07 mg/kg.
